The source of these data is paper PMC3136501 (PLoS ONE, 2011).

One may read the IC50 as the concentration that inhibits the measured activity by half. A lower IC50 goes with inhibition by little substance.

The experiment has as its target T1, human OCT2 (Homo sapiens, UniProt O15244).
T1 construct: OCT2: NP_003049.2; expressed in transfected cells; host or cells: HEK293 (ATCC), stably transfected with pcDNA3.1(+)-SLC22A2
T1 sequence (O15244 1-555): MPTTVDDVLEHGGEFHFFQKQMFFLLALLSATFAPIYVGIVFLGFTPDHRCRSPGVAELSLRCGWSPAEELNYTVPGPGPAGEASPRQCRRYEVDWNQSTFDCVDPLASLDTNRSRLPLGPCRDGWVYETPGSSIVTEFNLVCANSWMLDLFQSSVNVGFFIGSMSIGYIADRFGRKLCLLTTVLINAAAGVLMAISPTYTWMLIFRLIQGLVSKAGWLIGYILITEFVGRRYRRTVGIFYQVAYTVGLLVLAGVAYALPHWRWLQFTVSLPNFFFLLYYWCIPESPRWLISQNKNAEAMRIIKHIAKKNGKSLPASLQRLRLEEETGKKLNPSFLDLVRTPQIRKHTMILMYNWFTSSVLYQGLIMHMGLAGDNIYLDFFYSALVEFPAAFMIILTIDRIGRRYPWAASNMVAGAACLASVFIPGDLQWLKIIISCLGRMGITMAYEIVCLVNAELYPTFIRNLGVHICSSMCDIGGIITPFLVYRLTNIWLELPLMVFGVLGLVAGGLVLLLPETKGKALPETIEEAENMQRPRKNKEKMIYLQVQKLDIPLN
In words: Inhibition of OCT2-mediated metformin uptake in stably transfected HEK cells. Format: cell-based. The following applies: for IC50: 5 µM [14C]metformin uptake, 5 sec, HEK-OCT2, means ± SE of 3 experiments. As for the experimental part: SLC22A1 cDNA and SLC22A2 cDNA had been PCR-amplified from human liver and kidney, respectively, as reported elsewhere and cDNAs were provided by the German Cancer Research Center; the study and the use of the tissue were approved by the institutional review board of the German Cancer Center, Heidelberg, Germany. Since the data were analyzed anonymously, and tissues were left-over samples from diagnostic procedures, written informed consent had not been required and obtained. IRB specifically waived the need for consent due to the fact the human tissue material used was fully anonymized. SLC22A3 cDNA was amplified using SLC22A3-TrueClone (Origene, Rockville, MD, USA) as the template. SLC22A1 cDNA was cloned into the expression vector pcDNA3.1/Hygro(-) (Invitrogen, Darmstadt, Germany), SLC22A2 and SLC22A3 cDNA into pcDNA3.1(+) (Invitrogen). […] HEK cells were grown in DMEM (Sigma) supplemented with 10% fetal bovine serum (Sigma), 100 U⋅ml^−1 penicillin, and 100 µg⋅ml^−1 streptomycin (Lonza, Basel, Switzerland) at 37°C and 5% CO2. HEK cells were transfected with Metafectene Pro (Biontex, München, Germany). Selection of clones stably expressing OCT1 was carried out with 0.5 mg⋅ml^−1 hygromycin as described. Similarly, clones stably expressing OCT2 or OCT3 were selected with 800 µg⋅ml^−1 G418. HEK cells stably transfected with the empty pcDNA3.1(+) vector served as controls (HEK-Co). Cells were incubated with 5 mM butyrate 24 h before use to increase protein levels of recombinant transporters.
HEK cells (400000 cells/well) were seeded into 24-well cell culture plates (Greiner Bio-One, Frickenhausen, Germany) and grown for 48 h. Cell adherence was improved by coating plates with poly-L-lysine (Biochrom AG, Berlin, Germany) prior to cell plating. All uptake studies were carried out at 37°C as described. […] Uptake was stopped at indicated time points by removing the uptake buffer and immediately washing the cells 3 times with ice-cold uptake buffer. Cells were lysed with 0.2% SDS and intracellular radioactivity was determined by liquid scintillation counting (Hidex 300SL TDCR liquid scintillation counter, Turku, Finland).
OCT-specific metformin uptake was obtained by subtracting metformin uptake in the presence of 2 mM unlabeled 1-methyl-4-phenylpyridinium (MPP) from that in its absence. […] OCT-specific metformin uptake in the presence of a PPI was then calculated as percentage of that in the absence of the respective PPI (100% uninhibited). For each PPI concentration, 3 individual experiments each with 3 parallel measurements were performed. Apparent IC50 values for inhibition of metformin uptake by PPIs were calculated for each individual experiment by fitting the values to the Hill equation using GraphPad Prism 4 (GraphPad Software Inc., La Jolla, CA, USA). Values in Table 1 are given as the means ± SE of the 3 individual experiments.

`COc1ccc2[nH]c([S+]([O-])Cc3ncc(C)c(OC)c3C)nc2n1` (stereo not drawn) [Tenatoprazole] registered an IC50 of 20.3 ± 7.2 µM.

`C[n+]1ccc(-c2ccccc2)cc1` [MPP, 1-methyl-4-phenylpyridinium]: the “Metformin uptake by HEK-OCT2 in the presence of MPP” value (5 µM metformin, 2 mM unlabeled MPP) was “almost completely absent”.

Consider `COc1ccc2[nH]c([S+]([O-])Cc3ncc(C)c(OC)c3C)nc2c1` (stereo not drawn) [Omeprazole], for which the IC50 is 6.7 ± 2.1 µM.

Regarding `Cc1c(OCC(F)(F)F)ccnc1C[S+]([O-])c1nc2ccccc2[nH]1` (stereo not drawn) [Lansoprazole], the IC50 amounted to 9.5 ± 3.8 µM.

On to `COCCCOc1ccnc(C[S+]([O-])c2nc3ccccc3[nH]2)c1C` (stereo not drawn) [Rabeprazole], for which half-maximal inhibition (IC50) was put at 5.7 ± 0.5 µM.

As for `COc1ccnc(C[S+]([O-])c2nc3ccc(OC(F)F)cc3[nH]2)c1OC` (stereo not drawn) [Pantoprazole], the IC50 worked out at 2.8 ± 0.9 µM.
